Experimental data reported in patent US8247377B2, “Non-steroidal glucocorticoid inhibitors and their use in treating inflammation, allergy and auto-immune conditions” (Glaxo Group Limited, priority 2006, dated 2012).

Experiments:
glucocorticoid receptor = biological target: T1, glucocorticoid receptor (Homo sapiens, UniProt P04150); assay: Glucocorticoid receptor binding assay (fluorescence polarisation); details: competition with Alexa 555 fluorescently-labelled dexamethasone derivative, full length glucocorticoid receptor; read-out: glucocorticoid binding pIC50 (converted)
T1 construct: a partially purified full length glucocorticoid receptor
T1 sequence (P04150 1-777): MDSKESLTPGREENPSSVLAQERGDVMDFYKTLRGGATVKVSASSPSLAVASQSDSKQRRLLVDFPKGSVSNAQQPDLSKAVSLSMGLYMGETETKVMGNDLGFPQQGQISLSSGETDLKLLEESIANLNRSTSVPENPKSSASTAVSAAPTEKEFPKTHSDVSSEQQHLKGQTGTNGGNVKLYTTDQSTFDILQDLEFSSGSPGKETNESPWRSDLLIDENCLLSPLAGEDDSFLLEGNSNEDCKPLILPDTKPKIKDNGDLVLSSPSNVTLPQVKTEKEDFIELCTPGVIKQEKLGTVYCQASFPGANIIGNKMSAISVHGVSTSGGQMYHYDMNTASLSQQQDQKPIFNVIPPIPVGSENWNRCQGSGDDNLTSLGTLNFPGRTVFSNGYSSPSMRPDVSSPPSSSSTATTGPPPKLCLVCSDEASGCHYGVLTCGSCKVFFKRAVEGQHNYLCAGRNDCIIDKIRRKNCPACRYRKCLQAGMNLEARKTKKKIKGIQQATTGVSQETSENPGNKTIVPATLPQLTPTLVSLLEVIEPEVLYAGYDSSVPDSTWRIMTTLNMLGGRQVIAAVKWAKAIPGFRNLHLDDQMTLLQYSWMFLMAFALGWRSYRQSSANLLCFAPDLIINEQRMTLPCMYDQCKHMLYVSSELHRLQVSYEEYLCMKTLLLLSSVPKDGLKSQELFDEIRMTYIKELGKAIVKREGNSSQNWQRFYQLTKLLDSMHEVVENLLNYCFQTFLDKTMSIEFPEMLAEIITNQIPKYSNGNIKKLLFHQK
Summary of the method: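 Compounds in DMSO incubated with fluorescent dexamethasone and partially purified full-length GR plus stabilising buffer components, 2 hrs at room temperature in the dark. Displacement read as decrease in fluorescence polarisation; pIC50 estimated from dose-response curves.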

MMTV promoter = assay: MMTV agonist assay in A549 MMTV cells; assay type: cell-based; details: Homo sapiens, A549, 6 h, >85% = full agonist, >20% and <85% = partial or efficacy selective agonist, read-out: average maximum asymptote in the MMTV agonist assay
Summary of the method: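 A549 cells stably carrying an MMTV promoter-driven renilla luciferase reporter were exposed to compound for 6 h at 37 °C in DMEM with 10% FCS and 25 mM HEPES. Luminescence read after renilla substrate addition; pEC50 and maximum asymptote estimated from dose-response curves.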

progesterone receptor = biological target: T2, progesterone receptor (Homo sapiens, UniProt P06401); assay: Assay for progesterone receptor activity (CV-1 cells, PRb-BacMam/MMTV-BacMam); assay type: cell-based; details: CV-1 cells transduced with PRb-BacMam and MMTV-BacMam; read-out: pEC50 progesterone receptor activity (converted)
T2 construct: expressed in transfected cells; host or cells: CV-1 cells transduced with PRb-BacMam and MMTV-BacMam
T2 sequence (P06401 1-933): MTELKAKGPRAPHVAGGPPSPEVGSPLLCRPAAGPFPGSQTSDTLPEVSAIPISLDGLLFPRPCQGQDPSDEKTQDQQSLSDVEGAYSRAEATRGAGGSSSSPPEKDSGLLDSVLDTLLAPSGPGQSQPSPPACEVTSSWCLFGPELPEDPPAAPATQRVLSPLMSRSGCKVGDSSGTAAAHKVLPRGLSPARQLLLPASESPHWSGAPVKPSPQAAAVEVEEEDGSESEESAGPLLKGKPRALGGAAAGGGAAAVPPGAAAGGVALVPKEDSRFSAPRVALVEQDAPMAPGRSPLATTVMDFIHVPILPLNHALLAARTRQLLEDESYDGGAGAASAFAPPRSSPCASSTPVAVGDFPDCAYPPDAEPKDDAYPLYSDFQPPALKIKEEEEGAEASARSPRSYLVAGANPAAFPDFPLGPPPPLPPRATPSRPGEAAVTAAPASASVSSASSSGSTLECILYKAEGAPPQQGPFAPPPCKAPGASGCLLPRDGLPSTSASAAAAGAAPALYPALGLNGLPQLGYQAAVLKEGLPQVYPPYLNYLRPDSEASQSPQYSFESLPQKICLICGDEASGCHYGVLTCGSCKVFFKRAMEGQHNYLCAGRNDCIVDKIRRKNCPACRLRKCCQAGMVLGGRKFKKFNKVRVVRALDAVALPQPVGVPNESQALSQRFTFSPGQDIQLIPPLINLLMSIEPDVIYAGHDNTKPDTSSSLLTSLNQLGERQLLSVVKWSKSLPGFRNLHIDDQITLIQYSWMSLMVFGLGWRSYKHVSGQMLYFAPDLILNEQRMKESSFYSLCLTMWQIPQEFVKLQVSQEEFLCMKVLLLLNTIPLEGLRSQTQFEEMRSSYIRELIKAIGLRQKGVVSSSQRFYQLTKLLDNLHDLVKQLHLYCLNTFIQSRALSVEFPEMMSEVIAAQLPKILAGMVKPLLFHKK
Summary of the method: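 CV-1 cells co-transduced with PRb-BacMam and MMTV-BacMam (10% each), seeded onto compounds in DMEM with 10% serum. After 24 h, luminescence was read with Steadylite. pEC50 values were estimated from dose-response curves.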

SMILES | IC50 (glucocorticoid receptor) [nM] | Emax (MMTV promoter) [%] | EC50 (progesterone receptor) [nM]
CCN(CC(O)(CNC(=O)c1cnn(-c2ccc(F)cc2F)c1N)C(F)(F)F)C(=O)c1c(F)cccc1F (racemic) [Example 34 (racemic), 5-amino-1-(2,4-difluorophenyl)-N-(2-{[[(2,6-difluorophenyl)carbonyl](ethyl)amino]methyl}-3,3,3-trifluoro-2-hydroxypropyl)-1H-pyrazole-4-carboxamide] | ≤ 316 | > 85 | > 1000
CCN(CC(O)(CNC(=O)c1cnn(-c2ccc(F)cc2)c1N)C(F)(F)F)C(=O)c1c(F)cccc1C(F)(F)F (racemic) [Example 23 (racemic), 5-amino-N-{2-[(ethyl{[2-fluoro-6-(trifluoromethyl)phenyl]carbonyl}amino)methyl]-3,3,3-trifluoro-2-hydroxypropyl}-1-(4-fluorophenyl)-1H-pyrazole-4-carboxamide] | ≤ 316 | > 85 | > 1000
CCN(CC(O)(CNC(=O)c1cnn(-c2ccc(Cl)cc2)c1N)C(F)(F)F)C(=O)c1c(F)cccc1F (racemic) [Example 39 (racemic), 5-amino-1-(4-chlorophenyl)-N-(2-{[[(2,6-difluorophenyl)carbonyl](ethyl)amino]methyl}-3,3,3-trifluoro-2-hydroxypropyl)-1H-pyrazole-4-carboxamide] | ≤ 316 | > 85 | > 1000
CCN(CC(O)(CNC(=O)c1cnn(-c2ccc(F)cc2)c1N)C(F)(F)F)C(=O)c1c(C(F)(F)F)cccc1C(F)(F)F (racemic) [Example 27 (racemic), 5-amino-N-(2-{[{[2,6-bis(trifluoromethyl)phenyl]carbonyl}(ethyl)amino]methyl}-3,3,3-trifluoro-2-hydroxypropyl)-1-(4-fluorophenyl)-1H-pyrazole-4-carboxamide] | ≤ 316 | > 85 | > 1000
Nc1c(C(=O)NCC(O)(CNC(=O)c2c(Br)cccc2Br)C(F)(F)F)cnn1-c1ccc(F)cc1 (racemic) [Example 11 (racemic), 5-Amino-N-[2-({[(2,6-dibromophenyl)carbonyl]amino}methyl)-3,3,3-trifluoro-2-hydroxypropyl]-1-(4-fluorophenyl)-1H-pyrazole-4-carboxamide] | ≤ 316 | 20 to 85 | > 1000
CN(CC(O)(CNC(=O)c1cnn(-c2ccc(F)cc2)c1N)C(F)(F)F)C(=O)c1c(F)cccc1F (racemic) [Example 8 (racemic), 5-Amino-N-(2-{[[(2,6-difluorophenyl)carbonyl](methyl)amino]methyl}-3,3,3-trifluoro-2-hydroxypropyl)-1-(4-fluorophenyl)-1H-pyrazole-4-carboxamide] | ≤ 316 | > 85 | > 1000
CCN(CC(O)(CNC(=O)c1cnn(-c2ccc(F)cc2)c1N)C(F)(F)F)C(=O)c1c(F)cccc1Cl (racemic) [Example 4 (racemic), 5-Amino-N-(2-{[[(2-chloro-6-fluorophenyl)carbonyl](ethyl)amino]methyl}-3,3,3-trifluoro-2-hydroxypropyl)-1-(4-fluorophenyl)-1H-pyrazole-4-carboxamide] | ≤ 316 | > 85 | > 1000
Nc1c(C(=O)NCC(O)(CNC(=O)c2c(Br)cccc2C(F)(F)F)C(F)(F)F)cnn1-c1ccc(F)cc1 (racemic) [Example 45 (racemic), 5-Amino-N-{2-[({[2-bromo-6-(trifluoromethyl)phenyl]carbonyl}amino)methyl]-3,3,3-trifluoro-2-hydroxypropyl}-1-(4-fluorophenyl)-1H-pyrazole-4-carboxamide] | ≤ 316 | 20 to 85 | > 1000
Nc1c(C(=O)NCC(O)(CNC(=O)c2c(F)cccc2Br)C(F)(F)F)cnn1-c1ccc(F)cc1 (racemic) [Example 13 (racemic), 5-Amino-N-[2-({[(2-bromo-6-fluorophenyl)carbonyl]amino}methyl)-3,3,3-trifluoro-2-hydroxypropyl]-1-(4-fluorophenyl)-1H-pyrazole-4-carboxamide] | ≤ 316 | 20 to 85 | > 1000
Nc1c(C(=O)NCC(O)(CNC(=O)c2c(Cl)cccc2OC(F)F)C(F)(F)F)cnn1-c1ccc(F)cc1 (single isomer, unassigned) [Example 14 Enantiomer 1, 5-Amino-N-(2-{[({2-chloro-6-[(difluoromethyl)oxy]phenyl}carbonyl)amino]methyl}-3,3,3-trifluoro-2-hydroxypropyl)-1-(4-fluorophenyl)-1H-pyrazole-4-carboxamide] | ≤ 316 | 20 to 85 | > 1000
CN(CC(O)(CNC(=O)c1cnn(-c2ccc(F)cc2)c1N)C(F)(F)F)C(=O)c1c(Cl)cccc1Br (racemic) [Example 16 (racemic), 5-amino-N-(2-{[[(2-bromo-6-chlorophenyl)carbonyl](methyl)amino]methyl}-3,3,3-trifluoro-2-hydroxypropyl)-1-(4-fluorophenyl)-1H-pyrazole-4-carboxamide] | ≤ 316 | > 85 | > 1000
CCN(CC(O)(CNC(=O)c1cnn(-c2ccc(F)cc2)c1N)C(F)(F)F)C(=O)c1c(Cl)cccc1Br (racemic) [Example 24 (racemic), 5-amino-N-(2-{[[(2-bromo-6-chlorophenyl)carbonyl](ethyl)amino]methyl}-3,3,3-trifluoro-2-hydroxypropyl)-1-(4-fluorophenyl)-1H-pyrazole-4-carboxamide] | ≤ 316 | > 85 | > 1000
Nc1c(C(=O)NCC(O)(CNC(=O)c2c(Cl)cccc2Br)C(F)(F)F)cnn1-c1ccc(F)cc1 (racemic) [Example 12 (racemic), 5-Amino-N-[2-({[(2-bromo-6-chlorophenyl)carbonyl]amino}methyl)-3,3,3-trifluoro-2-hydroxypropyl]-1-(4-fluorophenyl)-1H-pyrazole-4-carboxamide] | ≤ 316 | 20 to 85 | > 1000
Nc1c(C(=O)NCC(O)(CNC(=O)c2c(Cl)cccc2C(F)(F)F)C(F)(F)F)cnn1-c1ccc(F)cc1 (single isomer, unassigned) [Example 44 Enantiomer 1, 5-Amino-N-{2-[({[2-chloro-6-(trifluoromethyl)phenyl]carbonyl}amino)methyl]-3,3,3-trifluoro-2-hydroxypropyl}-1-(4-fluorophenyl)-1H-pyrazole-4-carboxamide] | ≤ 316 | 20 to 85 | > 1000
